Test results published in PMC10786692 (The Journal of Clinical Investigation, 2024).

Columns and labels:
[1] = tested on: phospho-(S635)Rad50; test: Paired tumor biopsy p-Rad50 IHC; format: in vivo, human; details: four paired biopsies, after 2-week dosing
Description: PD sampling took place at baseline (within 7 days prior to dosing) and between days 15 and 22 of dosing (day 14 for intermittent dosing cohorts). PD samples included PBMCs and tumor biopsies. PBMCs were analyzed by immunofluorescence for γ^(S139)H2AX, p-^(S345)Chk1, and total Chk1, as described in Supplemental Methods. Paired tumor biopsies were formalin fixed and analyzed for nuclear p-^(S635)Rad50 and γH2AX by IHC. […]
signatures for heatmap construction were used from MSigDB (49) and cell-type-related transcripts from NanoString annotations and Bindea et al (50). Cell-type deconvolution was performed using CIBERSORTx (51).
Supplementary Pharmacodynamic methods
Formalin fixed paraffin-embedded tumor samples were used. […] H-score was calculated using HALO image analysis (Indica Labs). […] Nuclear ATM (Abcam 32420) IHC staining was carried out on the Ventana autostainer, using DAB detection and assessed by H-score, but samples were only deemed acceptable if lymphocyte staining (internal control) was at least 2+ (moderate) intensity. Cyclin E1 (Invitrogen HE12) staining was carried out on the Ventana autostainer, using DAB detection and the H-score was quantified using HALO image analysis (Indica Labs). Ki67 (Mib-1, Dako M7240) was scored by percent nuclear positivity using a global unweighted method, scoring 4 areas of 100 cells. […]

[2] = Treatment-related adverse events (CTCAE v4.03), PATRIOT phase I; format: in vivo; details: for TRAE Overall events: n: Total
Description: (§1) For part A (dose escalation; Figure 1, A and B), the starting dose of 20 mg was selected based on animal toxicity studies. Dosing was continuous, and escalation used a modified Fibonacci method. Initial dose escalation was planned in single patient cohorts, changing to 3+3 design after the first grade-2 toxicity was seen. […] DLT definitions are in the Supplemental Methods.
(§2) For part B, all patients received the RP2D as defined for part A. Part B allowed for different schedules (continuous/intermittent) to be assessed. Initially, a continuous dosing schedule was used for the first 6 patients. […] Pretreatment biopsy was mandatory in part B. DNA-Seq of archival tumor material or review of external tumor sequencing was used to enrich for patients with putative genomic markers of sensitivity to ATRi, based on preclinical data, including oncogene amplification or driver mutation, ATM/G1 pathway defects (alteration in ATM, CHK2, or other components of the pathway causing G1 cell-cycle arrest after DNA damage), SWI/SNF (switch/sucrose nonfermentable, a chromatin-remodeling complex) pathway defect, genomic instability/homologous recombination deficit (HRD), or defect in a gene synthetically lethal with ATRi in published data ([46], [47]) (Figure 1B and Supplemental Table 3).
Patients were assessed weekly during cycle 1 and twice weekly thereafter, with safety assessments including blood hematology and biochemistry, physical examination, and toxicity scoring.

[3] = Dose-limiting toxicity, MTD and RP2D determination; format: in vivo; details: for Number of DLT: 3 evaluable; for Patients with DLT / number of DLT: 6 evaluable
Description: as §1
as §2, with “3). […]” for “3).”
Criteria for Dose Limiting Toxicity
1. Hematological toxicity
1. Grade 3 thrombocytopenia with bleeding
2. Grade 4 thrombocytopenia
3. Grade 4 neutropenia lasting >7 days in the absence of growth factor […]
and/or systemic infection
5. Any other grade ≥4 hematological toxicity
2. Cardiovascular toxicity
1. Clinically significant hypotension defined as an asymptomatic fall in systolic blood pressure more than 20mmHg to below 70mmHg persisting for at least 10 minutes
2. Symptomatic orthostatic fall in systolic blood pressure of more than 20mmHg compared to resting supine blood pressure
3. Prolongation of QTc >0.5 seconds (using an appropriate correction […]
3. Gastrointestinal/hepatic toxicity
1. ALT or AST >5 times ULN; ALP >5 times ULN with elevated gamma- GT
2. ALT or AST >3 times ULN (or ALP >3 times ULN with elevated gamma-GT) with the appearance of symptoms associated with a clinical diagnosis of hepatitis including right upper quadrant pain or tenderness, fever, rash, or eosinophilia (>5%)
3. [ALT or AST >3 times ULN] and [total bilirubin >2 times ULN] or INR >1.5x ULN (unless patient receiving warfarin) (or other evidence of impaired liver synthetic function)
4. Any other grade 3-4 non-hematological toxicity occurring during the time period from the first dose to the end of the first cycle
2. Excluding grade 3 nausea or vomiting if ameliorated by medical management
3. Excluding grade 3 fatigue unless there is an increase by 2 grades from baseline
5. Any dose in cycle 1, or the start of cycle 2, delayed by more than 7 days due to toxicity or patient unable to complete cycle 1 at the planned dose due to toxicity (parts A and B only)
6. Any other toxicity that is greater than baseline, is clinically significant and/or unacceptable, does […]
is considered to be dose-limiting by the investigators.

[4] = 160 mg BD intermittent schedule

C[C@@H]1COCCN1c1cc(C2([S@](C)(=N)=O)CC2)nc(-c2cc[nH]c3nccc2-3)n1 [ceralasertib]
p-Rad50 in paired tumor biopsies [1]: upregulation | TRAE Overall events: n (%) ([2]; 40 mg BD, G1–2): 7 (100) | TRAE Overall events: n (%) ([2]; 40 mg BD, G3): 0 | TRAE Overall events: n ([2]; 40 mg BD): 7 | TRAE Overall events: n (%) ([2]; 80 mg BD, G1–2): 18 (78) | TRAE Overall events: n (%) ([2]; 80 mg BD, G3): 5 (22) | TRAE Overall events: n ([2]; 80 mg BD): 23 | Tolerability of intermittent versus continuous schedule ([2]; 160 mg BD): better tolerated | Incidence of G3 leukopenia ([2]; 160 mg BD continuous schedule): 8% | Incidence of G3 or greater anemia ([2]; 160 mg BD continuous schedule): 33% | TRAE Overall events: n (%) ([2]; 160 mg BD continuous, G1–2): 44 (90) | TRAE Overall events: n (%) ([2]; 160 mg BD continuous, G3): 5 (10) | TRAE Overall events: n ([2]; 160 mg BD continuous): 49 | Incidence of G3 leukopenia [2, 4]: 0% | Incidence of G3 or greater anemia [2, 4]: 9% | TRAE Overall events: n (%) ([2]; 160 mg BD intermittent, G1–2): 100 (89) | TRAE Overall events: n (%) ([2]; 160 mg BD intermittent, G3): 11 (10) | TRAE Overall events: n (%) ([2]; 160 mg BD intermittent, G4): 1 (1) | TRAE Overall events: n ([2]; 160 mg BD intermittent): 112 | TRAE Overall events: n (%) ([2]; 240 mg BD, G1–2): 26 (77) | TRAE Overall events: n (%) ([2]; 240 mg BD, G3): 8 (24) | TRAE Overall events: n (%) ([2]; 240 mg BD, G4): 7 (21) | Related SAE ([2]; 20 and 40 mg dose levels): N o related SAE | Treatment-related deaths ([2]; all 67 treated patients): no treatment-related deaths | Patients requiring dose reduction or interruption for toxicity ([2]; continuous schedule (incl. part A), 6 of 12): 50% | Patients withdrawn due to toxicity ([2]; dose-escalation phase): Four | Patients withdrawn due to toxicity ([2]; dose-expansion phase): 1 | Patients requiring dose reduction or interruption for toxicity ([2]; intermittent schedule, 10 of 35): 29% | Number of DLT ([3]; 20 mg BD): 0 | Number of DLT ([3]; 40 mg BD): 0 | Patients with DLT / number of DLT ([3]; 80 mg BD): 1 | Patients with DLT / number of DLT ([3]; 240 mg BD): 3 | Recommended phase 2 dose (RP2D) ([3]; BD (twice daily), intermittent: 2 weeks on, 2 weeks off, 4-weekly cycle): 160 mg | Maximum tolerated dose ([3]; BD, continuous dosing, dose escalation): 160 mg
